Among the data in patent publication US9481676B2, “Azepino[4,5-B]indoles and methods of use” (Medivation Technologies, Inc., priority 2008, dated 2016) are inhibition values, retold here.

The structures appear in SMILES notation.

The assay has as its target T1, human recombinant adrenergic α1D receptor (Homo sapiens, UniProt P25100).
T1 construct: expressed in transfected cells; host or cells: HEK-293 cells
T1 sequence (P25100 1-572): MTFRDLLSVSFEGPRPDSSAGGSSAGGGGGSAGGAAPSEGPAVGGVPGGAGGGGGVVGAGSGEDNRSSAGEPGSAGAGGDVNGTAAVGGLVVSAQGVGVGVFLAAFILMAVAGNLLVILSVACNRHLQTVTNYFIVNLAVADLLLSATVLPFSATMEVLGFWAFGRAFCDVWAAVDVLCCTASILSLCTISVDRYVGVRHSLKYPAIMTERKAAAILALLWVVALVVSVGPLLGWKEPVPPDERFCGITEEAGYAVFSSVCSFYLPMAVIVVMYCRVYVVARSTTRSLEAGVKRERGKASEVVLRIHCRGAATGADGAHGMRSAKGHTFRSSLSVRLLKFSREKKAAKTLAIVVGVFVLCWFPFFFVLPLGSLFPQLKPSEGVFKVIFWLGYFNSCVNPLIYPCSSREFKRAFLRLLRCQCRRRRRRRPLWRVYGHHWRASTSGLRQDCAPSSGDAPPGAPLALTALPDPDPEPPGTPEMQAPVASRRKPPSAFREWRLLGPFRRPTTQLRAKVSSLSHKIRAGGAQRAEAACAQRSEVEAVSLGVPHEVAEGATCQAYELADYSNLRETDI
Description: Adrenergic alpha1D radioligand binding ([3H]Prozosin). Particulars: compound at 1 μM; read-out: Adrenergic (1 μM) α1D, percent inhibition of specific binding. As for the experimental part: To evaluate in radioligand binding assays the activity of compounds of the invention, human recombinant adrenergic α1D receptor expressed in human embryonic kidney (HEK-293) cells (Kenny, B. A. et al. Br. J. Pharmacol. 115(6):981, 1995) in a 50 mM Tris-HCl buffer, pH 7.4, was used. Compounds of invention were incubated with 0.6 nM [^3H]Prozosin for 60 min. at 25° C. Non-specific binding was estimated in the presence of 10 μM phentolamine. Receptor proteins were filtered and washed, the filters were then counted to determine [^3H]Prozosin specifically bound. Compounds were screened at 1 μM or lower, using 1% DMSO as vehicle. Biochemical assay results are presented as the percent inhibition of specific binding in Table 5.
In general, inhibition refers to the relative decrease from the control value, in per cent. Regarding `COc1ccc(C(O)Cn2c3c(c4cc(C)ccc42)CCN(C)CC3)cc1` (centres unmarked) [Compound No. 48, 2-(2,3,4,5-tetrahydro-3,9-dimethylazepino[4,5-b]indol-6(1H)-yl)-1-(4-methoxyphenyl) ethanol], the inhibition at 1 µM is 95%.

Take `CN1CCc2c(n(CC(=O)Nc3ccccc3)c3ccc(Cl)cc23)CC1` [Compound No. 73, 2-(9-chloro-2,3,4,5-tetrahydro-3-methylazepino[4,5-b]indol-6(1H)-yl)-N-phenylacetamide]: the inhibition at 1 µM was found to be 1%.

For the compound `Cc1ccc2c(c1)c1c(n2CCc2ccc(C(F)(F)F)nc2)CCN(C)CC1` [Compound No. 20, 6-(2-(6-(trifluoromethyl)pyridin-3-yl)ethyl)-1,2,3,4,5,6-hexahydro-3,9-dimethylazepino[4,5-b]indole], the inhibition at 1 µM stood at 91%.

Consider `Cc1ccc(C(O)Cn2c3c(c4cc(Cl)ccc42)CCN(C)CC3)cn1` (centres unmarked) [Compound No. 7, 2-(9-chloro-2,3,4,5-tetrahydro-3-methylazepino[4,5-b]indol-6(1H)-yl)-1-(6-methylpyridin-3-yl)ethanol], for which the inhibition at 1 µM worked out at 69%.

On to `CN1CCc2c(n(CC(O)c3cccnc3)c3ccc(Cl)cc23)CC1` (centres unmarked) [Compound No. 18, 2-(9-chloro-2,3,4,5-tetrahydro-3-methylazepino[4,5-b]indol-6(1H)-yl)-1-(pyridin-3-yl)ethanol], for which the inhibition at 1 µM came out at 58%.

For the compound `C/C(=C\n1c2c(c3cc(C)ccc31)CCN(C)CC2)c1ccc(F)cc1` [Compound No. 34, 6-((E)-2-(4-fluorophenyl)prop-1-enyl)-1,2,3,4,5,6-hexahydro-3,9-dimethylazepino[4,5-b]indole], the inhibition at 1 µM was 100%.

In the case of `COc1ccc(C(O)Cn2c3c(c4cc(Cl)ccc42)CCN(C)CC3)cc1F` (centres unmarked) [Compound No. 67, 2-(9-chloro-2,3,4,5-tetrahydro-3-methylazepino[4,5-b]indol-6(1H)-yl)-1-(3-fluoro-4-methoxyphenyl) ethanol], the inhibition at 1 µM amounted to 90%.

With `Cc1ccc2c(c1)c1c(n2CC(=O)NC(C)C)CCN(C)CC1` [Compound No. 54, 2-(2,3,4,5-tetrahydro-3,9-dimethylazepino[4,5-b]indol-6(1H)-yl)-N-isopropylacetamide], the inhibition at 1 µM is -1%.

As to `CN1CCc2c(n(/C=C/c3ccc(F)c(F)c3)c3ccc(Cl)cc23)CC1` [Compound No. 236, (E)-9-chloro-6-(3,4-difluorostyryl)-3-methyl-1,2,3,4,5,6-hexahydroazepino[4,5-b]indole], the inhibition at 1 µM came out at 94%.

Consider `CN1CCc2c(n(CC(O)c3ccc(F)c(F)c3)c3ccc(Cl)cc23)CC1` (centres unmarked) [Compound No. 58, 2-(9-chloro-2,3,4,5-tetrahydro-3-methylazepino[4,5-b]indol-6(1H)-yl)-1-(3,4-difluorophenyl)ethanol], for which the inhibition at 1 µM was 88%.

Regarding `Cc1ccc2c(c1)c1c(n2C(=O)Cc2ccc(F)cc2)CCN(C)CC1` [Compound No. 285, 1-(3,9-dimethyl-2,3,4,5-tetrahydroazepino[4,5-b]indol-6(1H)-yl)-2-(4-fluorophenyl) ethanone], the inhibition at 1 µM was 89%.

For `Cc1ccc(C(O)Cn2c3c(c4cc(C)ccc42)CCN(C)CC3)cc1` (centres unmarked) [Compound No. 27, 2-(2,3,4,5-tetrahydro-3,9-dimethylazepino[4,5-b]indol-6(1H)-yl)-1-p-tolylethanol], the inhibition at 1 µM came to 95%.

Turning to `Cc1ccc2c(c1)c1c(n2CC(O)c2cccnc2)CCN(C)CC1` (centres unmarked) [Compound No. 19, 2-(2,3,4,5-tetrahydro-3,9-dimethylazepino[4,5-b]indol-6(1H)-yl)-1-(pyridin-3-yl)ethanol], the inhibition at 1 µM amounted to 54%.

Regarding `Cc1ccc2c(c1)c1c(n2CC(C)(O)c2ccc(Cl)cc2)CCN(C)CC1` (centres unmarked) [Compound No. 15, 2-(4-chlorophenyl)-1-(2,3,4,5-tetrahydro-3,9-dimethylazepino[4,5-b]indol-6(1H)-yl)propan-2-ol], the inhibition at 1 µM turned out to be 72%.
